From ChEMBL document CHEMBL5058646 (2022)

Tests used:
[1] = target: Calcium/calmodulin-dependent protein kinase type II subunit delta (Homo sapiens) (UniProt Q13557); test: CAMK2D SGC Tm panel (DSF); conditions: Compound concentration 20.0 uM
[2] = species on record: Rattus norvegicus; conditions: Compound concentration 10.0 uM
[3] = target: T1, Zinc finger and BTB domain-containing protein 9 (Homo sapiens) (UniProt Q96C00); conditions: OCI-Ly1, Compound concentration 1.0 uM
T1 sequence (whole entry): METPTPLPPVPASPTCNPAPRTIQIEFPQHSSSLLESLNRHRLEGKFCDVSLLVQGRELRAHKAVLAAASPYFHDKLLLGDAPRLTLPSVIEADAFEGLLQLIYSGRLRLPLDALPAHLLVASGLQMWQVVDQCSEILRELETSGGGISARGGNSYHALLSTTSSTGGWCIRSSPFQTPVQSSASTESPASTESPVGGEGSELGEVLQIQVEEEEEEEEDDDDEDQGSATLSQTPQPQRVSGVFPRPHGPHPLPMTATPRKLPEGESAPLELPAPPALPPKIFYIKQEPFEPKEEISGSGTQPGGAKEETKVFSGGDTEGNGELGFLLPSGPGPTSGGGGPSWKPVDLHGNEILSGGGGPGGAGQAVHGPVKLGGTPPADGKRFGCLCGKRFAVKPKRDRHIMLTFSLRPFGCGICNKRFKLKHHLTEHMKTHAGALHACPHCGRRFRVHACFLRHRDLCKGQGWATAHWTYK

[4] = target: T2, Transcriptional regulator Kaiso (Homo sapiens) (UniProt Q86T24); conditions: SUD4, Compound concentration 1.0 uM
T2 sequence (whole entry): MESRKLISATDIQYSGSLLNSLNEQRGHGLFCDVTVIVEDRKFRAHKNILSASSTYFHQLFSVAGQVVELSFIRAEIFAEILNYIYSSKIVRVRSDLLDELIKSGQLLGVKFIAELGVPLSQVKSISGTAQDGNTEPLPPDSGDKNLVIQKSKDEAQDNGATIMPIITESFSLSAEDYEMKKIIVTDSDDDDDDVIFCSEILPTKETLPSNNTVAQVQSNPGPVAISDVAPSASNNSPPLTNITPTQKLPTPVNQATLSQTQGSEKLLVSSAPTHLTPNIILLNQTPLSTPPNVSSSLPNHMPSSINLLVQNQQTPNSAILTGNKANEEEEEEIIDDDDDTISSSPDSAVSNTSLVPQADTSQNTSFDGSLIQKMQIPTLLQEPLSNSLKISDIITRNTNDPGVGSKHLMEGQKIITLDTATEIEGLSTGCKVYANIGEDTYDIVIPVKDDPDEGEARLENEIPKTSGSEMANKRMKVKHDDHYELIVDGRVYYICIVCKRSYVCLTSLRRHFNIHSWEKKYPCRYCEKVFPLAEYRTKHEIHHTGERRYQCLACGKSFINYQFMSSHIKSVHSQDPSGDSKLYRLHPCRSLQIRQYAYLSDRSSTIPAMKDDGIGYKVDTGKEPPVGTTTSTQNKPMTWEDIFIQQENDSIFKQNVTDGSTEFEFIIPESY

[5] = target: T3, Telomere zinc finger-associated protein (Homo sapiens) (UniProt P10074); conditions: OCI-Ly1, Compound concentration 1.0 uM
T3 sequence (whole entry): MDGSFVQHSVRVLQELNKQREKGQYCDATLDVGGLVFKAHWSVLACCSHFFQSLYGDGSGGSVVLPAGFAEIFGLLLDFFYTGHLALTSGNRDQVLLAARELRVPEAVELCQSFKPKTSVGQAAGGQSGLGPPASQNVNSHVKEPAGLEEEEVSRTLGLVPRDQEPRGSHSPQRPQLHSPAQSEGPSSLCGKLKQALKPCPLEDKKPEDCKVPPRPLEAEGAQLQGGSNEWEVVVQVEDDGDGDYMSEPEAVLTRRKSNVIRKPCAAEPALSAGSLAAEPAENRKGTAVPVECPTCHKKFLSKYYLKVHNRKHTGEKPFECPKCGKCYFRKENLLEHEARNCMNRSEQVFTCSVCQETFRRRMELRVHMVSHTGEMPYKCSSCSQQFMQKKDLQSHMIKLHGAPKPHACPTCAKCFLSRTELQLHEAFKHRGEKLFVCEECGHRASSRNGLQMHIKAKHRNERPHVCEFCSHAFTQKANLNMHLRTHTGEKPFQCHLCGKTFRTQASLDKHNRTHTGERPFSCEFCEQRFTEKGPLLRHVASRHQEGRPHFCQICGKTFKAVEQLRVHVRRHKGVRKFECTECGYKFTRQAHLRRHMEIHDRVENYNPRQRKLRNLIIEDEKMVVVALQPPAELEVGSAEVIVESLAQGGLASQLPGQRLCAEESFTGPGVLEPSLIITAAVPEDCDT

[6] = target: Mitogen-activated protein kinase 10 (Homo sapiens) (UniProt P53779); test: MAPK10 SGC Tm panel (DSF); conditions: Compound concentration 20.0 uM
Chain of Mitogen-activated protein kinase 10 (Homo sapiens) (P53779 whole entry): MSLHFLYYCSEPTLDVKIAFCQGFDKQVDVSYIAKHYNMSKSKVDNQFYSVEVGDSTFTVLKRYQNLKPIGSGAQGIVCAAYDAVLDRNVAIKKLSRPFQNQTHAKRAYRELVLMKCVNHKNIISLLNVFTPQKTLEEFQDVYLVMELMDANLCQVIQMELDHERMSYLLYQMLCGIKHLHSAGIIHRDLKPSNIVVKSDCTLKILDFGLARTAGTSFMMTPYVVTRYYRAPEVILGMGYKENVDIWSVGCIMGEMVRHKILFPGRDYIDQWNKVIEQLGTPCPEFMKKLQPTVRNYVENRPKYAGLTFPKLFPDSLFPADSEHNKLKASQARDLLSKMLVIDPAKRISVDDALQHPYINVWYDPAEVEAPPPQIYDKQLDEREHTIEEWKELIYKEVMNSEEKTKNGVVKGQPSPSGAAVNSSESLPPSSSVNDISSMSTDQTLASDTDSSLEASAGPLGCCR

[7] = target: Sodium-dependent dopamine transporter (Homo sapiens, UniProt Q01959); test: GPCRScan assay: inhibition of DAT; design: radioligand conc. used [nm] 3.6 – 16.0, parental cells stable HEK
Chain of Sodium-dependent dopamine transporter (Q01959 whole entry): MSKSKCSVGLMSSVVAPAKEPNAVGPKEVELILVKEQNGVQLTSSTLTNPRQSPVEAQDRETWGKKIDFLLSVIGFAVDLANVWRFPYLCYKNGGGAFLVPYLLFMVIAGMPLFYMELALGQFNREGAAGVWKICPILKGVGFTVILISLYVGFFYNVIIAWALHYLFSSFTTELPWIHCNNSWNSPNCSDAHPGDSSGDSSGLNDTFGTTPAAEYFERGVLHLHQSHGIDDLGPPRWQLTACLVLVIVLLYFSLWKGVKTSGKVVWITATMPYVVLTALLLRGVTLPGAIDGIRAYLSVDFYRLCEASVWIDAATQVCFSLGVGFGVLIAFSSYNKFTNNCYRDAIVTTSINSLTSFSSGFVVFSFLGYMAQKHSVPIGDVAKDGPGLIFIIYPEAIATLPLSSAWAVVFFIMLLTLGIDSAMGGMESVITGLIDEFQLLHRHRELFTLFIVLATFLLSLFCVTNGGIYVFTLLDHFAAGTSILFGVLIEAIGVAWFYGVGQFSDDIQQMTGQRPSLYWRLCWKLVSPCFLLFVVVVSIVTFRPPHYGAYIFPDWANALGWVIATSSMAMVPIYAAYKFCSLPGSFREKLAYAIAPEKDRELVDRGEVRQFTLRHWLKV

[8] = target: Cytoplasmic tyrosine-protein kinase BMX (Homo sapiens) (UniProt P51813); test: BMX SGC Tm panel (DSF); conditions: Compound concentration 20.0 uM
[9] = target: Cyclin-G-associated kinase (Homo sapiens) (UniProt O14976); test: GAK SGC Tm panel (DSF); conditions: Compound concentration 20.0 uM
[10] = target: Histamine H3 receptor (Homo sapiens, UniProt Q9Y5N1); test: GPCRScan assay: inhibition of H3; design: radioligand conc. used [nm] 0.5 – 1.0, parental cells HEK Flp-In
Chain of Histamine H3 receptor (Q9Y5N1 whole entry): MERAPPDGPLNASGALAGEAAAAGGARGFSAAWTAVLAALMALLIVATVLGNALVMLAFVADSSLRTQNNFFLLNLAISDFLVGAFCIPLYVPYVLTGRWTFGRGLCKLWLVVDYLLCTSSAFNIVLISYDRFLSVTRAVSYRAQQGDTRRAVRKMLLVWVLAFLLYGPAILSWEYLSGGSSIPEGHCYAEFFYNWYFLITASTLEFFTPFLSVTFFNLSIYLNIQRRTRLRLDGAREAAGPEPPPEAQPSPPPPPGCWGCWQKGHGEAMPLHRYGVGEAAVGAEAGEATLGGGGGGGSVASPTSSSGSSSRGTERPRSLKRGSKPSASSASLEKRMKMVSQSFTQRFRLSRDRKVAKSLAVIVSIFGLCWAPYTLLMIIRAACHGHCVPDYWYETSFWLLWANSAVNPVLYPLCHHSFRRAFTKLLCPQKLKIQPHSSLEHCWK

[11] = GPCRScan assay: inhibition of GABA/PBR; design: species or system Rattus norvegicus; radioligand conc. used [nm] 0.3 – 2.0, parental cells brain tissue
[12] = target: Serine/threonine-protein kinase Nek2 (Homo sapiens) (UniProt P51955); test: NEK2 SGC Tm panel (DSF); conditions: Compound concentration 20.0 uM
[13] = target: Dual specificity tyrosine-phosphorylation-regulated kinase 2 (Homo sapiens) (UniProt Q92630); test: DYRK2 SGC Tm panel (DSF); conditions: Compound concentration 20.0 uM
[14] = target: Calcium/calmodulin-dependent protein kinase type IV (Homo sapiens) (UniProt Q16566); test: CAMK4 SGC Tm panel (DSF); conditions: Compound concentration 20.0 uM
Chain of Calcium/calmodulin-dependent protein kinase type IV (Homo sapiens) (Q16566 whole entry): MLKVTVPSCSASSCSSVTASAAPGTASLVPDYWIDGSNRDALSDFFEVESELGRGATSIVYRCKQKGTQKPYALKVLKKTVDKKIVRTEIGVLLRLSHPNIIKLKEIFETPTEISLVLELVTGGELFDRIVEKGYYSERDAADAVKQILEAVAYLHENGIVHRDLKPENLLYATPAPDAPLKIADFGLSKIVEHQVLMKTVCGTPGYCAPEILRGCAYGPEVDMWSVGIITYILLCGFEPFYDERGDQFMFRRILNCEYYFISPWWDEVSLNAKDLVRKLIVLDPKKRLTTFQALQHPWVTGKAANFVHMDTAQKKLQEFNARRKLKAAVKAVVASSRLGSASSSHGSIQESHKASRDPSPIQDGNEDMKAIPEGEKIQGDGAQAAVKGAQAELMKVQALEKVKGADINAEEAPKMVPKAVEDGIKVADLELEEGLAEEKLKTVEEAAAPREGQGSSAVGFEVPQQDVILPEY

[15] = target: Peripheral plasma membrane protein CASK (Homo sapiens) (UniProt O14936); test: CASK SGC Tm panel (DSF); conditions: Compound concentration 20.0 uM
[16] = target: Serine/threonine-protein kinase 4 (Homo sapiens) (UniProt Q13043); test: STK4 SGC Tm panel (DSF); conditions: Compound concentration 20.0 uM
[17] = target: Dual specificity mitogen-activated protein kinase kinase 1 (Homo sapiens) (UniProt Q02750); test: MAP2K1 SGC Tm panel (DSF); conditions: Compound concentration 20.0 uM
[18] = target: Ephrin type-B receptor 3 (Homo sapiens) (UniProt P54753); test: EPHB3 SGC Tm panel (DSF); conditions: Compound concentration 20.0 uM
Chain of Ephrin type-B receptor 3 (Homo sapiens) (P54753 whole entry): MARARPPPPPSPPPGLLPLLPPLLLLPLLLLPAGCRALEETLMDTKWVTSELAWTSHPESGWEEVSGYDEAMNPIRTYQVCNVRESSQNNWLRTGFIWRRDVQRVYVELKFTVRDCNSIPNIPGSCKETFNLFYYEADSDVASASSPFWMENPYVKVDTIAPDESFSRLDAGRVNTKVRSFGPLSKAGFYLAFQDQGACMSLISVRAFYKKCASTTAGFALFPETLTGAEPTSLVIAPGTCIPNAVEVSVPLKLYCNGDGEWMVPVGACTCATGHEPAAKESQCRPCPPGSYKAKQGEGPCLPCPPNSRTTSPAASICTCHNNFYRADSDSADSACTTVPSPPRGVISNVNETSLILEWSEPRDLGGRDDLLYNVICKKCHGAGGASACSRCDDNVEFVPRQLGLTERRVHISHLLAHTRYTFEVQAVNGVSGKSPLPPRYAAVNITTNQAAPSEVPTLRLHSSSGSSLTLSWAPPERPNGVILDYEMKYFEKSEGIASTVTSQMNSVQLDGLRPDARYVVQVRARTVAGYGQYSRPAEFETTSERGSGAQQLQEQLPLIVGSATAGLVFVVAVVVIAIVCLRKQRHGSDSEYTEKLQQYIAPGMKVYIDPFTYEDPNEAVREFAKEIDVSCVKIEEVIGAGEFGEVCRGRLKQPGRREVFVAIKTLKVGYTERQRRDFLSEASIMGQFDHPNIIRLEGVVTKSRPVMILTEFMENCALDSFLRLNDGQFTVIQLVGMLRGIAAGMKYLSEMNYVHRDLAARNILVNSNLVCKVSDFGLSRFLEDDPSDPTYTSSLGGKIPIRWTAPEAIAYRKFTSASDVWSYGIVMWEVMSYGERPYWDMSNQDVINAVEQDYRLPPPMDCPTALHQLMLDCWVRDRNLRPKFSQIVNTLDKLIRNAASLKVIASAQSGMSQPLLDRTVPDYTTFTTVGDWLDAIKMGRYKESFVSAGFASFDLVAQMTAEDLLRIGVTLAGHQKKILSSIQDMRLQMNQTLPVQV

[19] = target: 5-hydroxytryptamine receptor 5A (Homo sapiens) (UniProt P47898); conditions: Compound concentration 10.0 uM
Chain of 5-hydroxytryptamine receptor 5A (Homo sapiens) (P47898 whole entry): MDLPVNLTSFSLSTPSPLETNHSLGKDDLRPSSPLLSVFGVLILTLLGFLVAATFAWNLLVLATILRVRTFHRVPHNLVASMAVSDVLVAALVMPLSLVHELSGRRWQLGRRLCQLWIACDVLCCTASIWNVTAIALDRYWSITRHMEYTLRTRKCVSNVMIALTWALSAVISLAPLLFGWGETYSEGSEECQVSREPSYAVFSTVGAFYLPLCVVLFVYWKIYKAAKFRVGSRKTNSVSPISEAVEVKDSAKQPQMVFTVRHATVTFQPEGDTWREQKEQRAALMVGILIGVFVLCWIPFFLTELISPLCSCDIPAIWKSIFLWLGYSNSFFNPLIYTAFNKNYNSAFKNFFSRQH

[20] = target: Histamine H4 receptor (Homo sapiens) (UniProt Q9H3N8); conditions: Compound concentration 10.0 uM
[21] = target: BMP-2-inducible protein kinase (Homo sapiens) (UniProt Q9NSY1); test: BMP2K SGC Tm panel (DSF); conditions: Compound concentration 20.0 uM
Chain of BMP-2-inducible protein kinase (Homo sapiens) (Q9NSY1 whole entry, looked up): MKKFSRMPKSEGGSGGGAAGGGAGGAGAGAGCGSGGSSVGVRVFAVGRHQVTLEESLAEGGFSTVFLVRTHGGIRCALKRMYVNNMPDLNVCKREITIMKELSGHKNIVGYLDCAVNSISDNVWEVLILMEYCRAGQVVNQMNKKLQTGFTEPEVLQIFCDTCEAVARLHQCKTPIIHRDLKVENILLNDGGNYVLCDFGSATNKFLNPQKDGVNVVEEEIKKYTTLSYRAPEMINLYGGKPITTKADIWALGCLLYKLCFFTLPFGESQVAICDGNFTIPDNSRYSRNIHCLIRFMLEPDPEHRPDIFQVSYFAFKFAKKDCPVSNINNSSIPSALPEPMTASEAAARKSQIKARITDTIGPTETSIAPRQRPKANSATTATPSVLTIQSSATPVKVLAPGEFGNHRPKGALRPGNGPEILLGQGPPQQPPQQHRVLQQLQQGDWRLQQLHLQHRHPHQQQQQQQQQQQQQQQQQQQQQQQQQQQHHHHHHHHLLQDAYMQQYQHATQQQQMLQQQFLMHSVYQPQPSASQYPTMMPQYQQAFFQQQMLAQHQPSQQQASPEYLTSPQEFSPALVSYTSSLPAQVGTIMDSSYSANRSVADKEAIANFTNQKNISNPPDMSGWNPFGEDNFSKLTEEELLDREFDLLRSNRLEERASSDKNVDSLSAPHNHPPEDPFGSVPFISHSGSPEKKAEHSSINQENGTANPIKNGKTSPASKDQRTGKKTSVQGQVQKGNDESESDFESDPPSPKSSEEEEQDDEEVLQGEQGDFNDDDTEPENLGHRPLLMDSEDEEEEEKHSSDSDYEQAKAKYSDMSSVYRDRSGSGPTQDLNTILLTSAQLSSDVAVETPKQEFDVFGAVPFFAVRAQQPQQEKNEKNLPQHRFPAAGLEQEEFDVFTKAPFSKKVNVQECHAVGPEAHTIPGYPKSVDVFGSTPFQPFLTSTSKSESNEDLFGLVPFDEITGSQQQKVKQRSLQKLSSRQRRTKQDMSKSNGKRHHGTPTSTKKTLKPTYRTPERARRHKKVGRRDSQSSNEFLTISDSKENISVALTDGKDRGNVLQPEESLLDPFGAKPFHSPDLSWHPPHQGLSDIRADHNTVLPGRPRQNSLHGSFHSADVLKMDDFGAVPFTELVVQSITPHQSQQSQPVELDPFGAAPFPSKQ

Chain of Calcium/calmodulin-dependent protein kinase type II subunit delta (Homo sapiens) (Q13557 whole entry): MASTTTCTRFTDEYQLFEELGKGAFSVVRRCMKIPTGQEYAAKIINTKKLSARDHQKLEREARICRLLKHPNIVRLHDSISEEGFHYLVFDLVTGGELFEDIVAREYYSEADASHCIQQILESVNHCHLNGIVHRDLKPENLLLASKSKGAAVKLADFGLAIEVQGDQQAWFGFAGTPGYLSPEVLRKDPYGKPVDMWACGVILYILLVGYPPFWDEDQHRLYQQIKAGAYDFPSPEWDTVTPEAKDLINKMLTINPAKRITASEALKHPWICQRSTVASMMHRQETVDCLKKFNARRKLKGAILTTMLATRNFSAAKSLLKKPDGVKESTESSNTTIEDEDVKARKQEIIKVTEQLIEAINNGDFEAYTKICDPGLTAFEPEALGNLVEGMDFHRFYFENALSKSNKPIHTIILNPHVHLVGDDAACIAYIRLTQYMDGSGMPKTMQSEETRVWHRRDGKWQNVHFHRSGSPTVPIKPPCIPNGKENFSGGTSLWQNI

Tm [1]: 47 °C
inhibition [2]: 59.6%
LogFC [3]: -0.0251
LogFC [4]: -0.022
LogFC [5]: 0.0229
Tm [6]: 48 °C
Ki ([7]; read-out: Ki): 5.09 µM
Ki ([7]; read-out: pKi (converted)): 4.9 µM
Tm [8]: 48 °C
Tm [9]: 52 °C
Ki ([10]; read-out: Ki): 2330 nM
Ki ([10]; read-out: pKi (converted)): 2040 nM
Ki [11]: 1110 nM
pKi [11]: 6.01
Tm [12]: 40 °C
Tm [13]: 46 °C
Tm [14]: 48 °C
Tm [15]: 68 °C
Tm [16]: 46 °C
Tm [17]: 45 °C
Tm [18]: 52 °C
inhibition [19]: 13.2%
inhibition [20]: -0.79%
Tm [21]: 43 °C
Compound: C[C@@H]1CN(c2ncc(Cl)c(Nc3ccc4c(c3)n(CCC(C)(C)O)c(=O)n4C)n2)C[C@H](C)C1(F)F
